According to patent US20260125378A2, “Heterocyclic Compounds” (BeOne Medicines I GmbH, priority 2023, published 2026):

Tests used:
[1] = target: T1, Full length DGKζ (in-house protein M1-V929) (Homo sapiens, UniProt Q13574); assay: Biochemical DGK IC50 assay (ADP-Glo, lipid micelle substrate), DGKζ; conditions: 1 hour preincubation, 1 hour reaction, room temperature
T1 construct: His (N); TEV site (N); made in house; host or cells: Sf9 insect cells (Bac-to-Bac baculovirus)
Procedure, shortened: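 Full-length human DGKζ (M1-V929, His-TEV tagged, Sf9 baculovirus-expressed) with DAG/PS lipid micelle substrate in octyl glucoside, at room temperature in 50 mM HEPES, 10 mM MgCl2, 0.01 mM CaCl2 buffer.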

[2] = target: T2, Full length DGKα (D21-10BG, SignalChem) (Homo sapiens, UniProt P23743); assay: Biochemical DGK IC50 assay (ADP-Glo, lipid micelle substrate), DGKα; conditions: 1 hour preincubation, 1 hour reaction, room temperature
T2 construct: Full length DGKα (D21-10BG, SignalChem); purchased SignalChem D21-10BG
Procedure, shortened: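 Full-length human DGKα with DAG/PS lipid micelle substrate (in octyl glucoside buffer), reacted 1 h at room temperature in 50 mM HEPES, 10 mM MgCl2, 0.01 mM CaCl2, 0.1 mM Na3VO4, 0.01% BSA, 0.005% Tween-20. ADP formed read by ADP-Glo luminescence; IC50 from inhibition across increasing compound concentrations.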

T2 sequence (P23743 whole entry): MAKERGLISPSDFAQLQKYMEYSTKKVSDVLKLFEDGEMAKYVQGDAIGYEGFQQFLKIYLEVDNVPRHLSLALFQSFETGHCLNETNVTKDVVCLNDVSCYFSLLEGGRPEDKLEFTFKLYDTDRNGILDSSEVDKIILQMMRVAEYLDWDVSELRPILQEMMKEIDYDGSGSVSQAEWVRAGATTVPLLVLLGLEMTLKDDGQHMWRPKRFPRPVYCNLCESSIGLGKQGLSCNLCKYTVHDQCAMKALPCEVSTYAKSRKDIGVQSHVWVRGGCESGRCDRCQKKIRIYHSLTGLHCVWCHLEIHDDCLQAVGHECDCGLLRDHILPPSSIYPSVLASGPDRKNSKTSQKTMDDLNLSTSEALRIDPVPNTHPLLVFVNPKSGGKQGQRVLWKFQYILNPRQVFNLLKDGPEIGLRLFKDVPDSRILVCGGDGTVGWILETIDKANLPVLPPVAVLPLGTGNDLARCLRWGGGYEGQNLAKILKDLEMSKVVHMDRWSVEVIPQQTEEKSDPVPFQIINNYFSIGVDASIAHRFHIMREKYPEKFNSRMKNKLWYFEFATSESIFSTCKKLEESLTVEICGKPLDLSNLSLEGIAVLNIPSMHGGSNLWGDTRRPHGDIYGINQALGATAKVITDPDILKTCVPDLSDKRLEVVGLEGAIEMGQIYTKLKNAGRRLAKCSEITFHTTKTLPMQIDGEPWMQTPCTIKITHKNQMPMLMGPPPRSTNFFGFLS
T1 sequence (Q13574 1-929 isoform Q13574-4): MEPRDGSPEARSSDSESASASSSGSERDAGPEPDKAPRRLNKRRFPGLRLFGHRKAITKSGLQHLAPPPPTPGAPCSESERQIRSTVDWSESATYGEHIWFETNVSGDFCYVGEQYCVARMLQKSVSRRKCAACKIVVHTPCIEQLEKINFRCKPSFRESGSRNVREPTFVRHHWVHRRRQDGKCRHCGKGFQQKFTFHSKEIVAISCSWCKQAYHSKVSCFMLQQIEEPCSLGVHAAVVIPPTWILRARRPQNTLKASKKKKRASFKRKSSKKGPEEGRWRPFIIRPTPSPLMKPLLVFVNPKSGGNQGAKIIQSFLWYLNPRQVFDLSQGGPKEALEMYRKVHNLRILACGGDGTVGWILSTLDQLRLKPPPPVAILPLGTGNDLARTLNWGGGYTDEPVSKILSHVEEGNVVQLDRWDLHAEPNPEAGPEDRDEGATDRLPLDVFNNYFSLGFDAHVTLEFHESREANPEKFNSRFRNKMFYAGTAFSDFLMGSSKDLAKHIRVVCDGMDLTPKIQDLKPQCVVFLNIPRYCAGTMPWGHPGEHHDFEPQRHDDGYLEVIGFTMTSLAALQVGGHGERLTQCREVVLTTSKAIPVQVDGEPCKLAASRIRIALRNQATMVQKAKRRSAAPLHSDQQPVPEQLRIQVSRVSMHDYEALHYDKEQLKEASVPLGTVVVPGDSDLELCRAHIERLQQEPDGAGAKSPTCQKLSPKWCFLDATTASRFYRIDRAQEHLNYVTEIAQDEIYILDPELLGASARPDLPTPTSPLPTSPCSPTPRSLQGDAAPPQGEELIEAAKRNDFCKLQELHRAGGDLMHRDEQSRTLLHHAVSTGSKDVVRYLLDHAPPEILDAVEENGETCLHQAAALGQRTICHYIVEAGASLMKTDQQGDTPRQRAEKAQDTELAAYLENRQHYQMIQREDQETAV

| Compound | IC50 [1] [µM] | IC50 [2] [µM] |
| --- | --- | --- |
| COC(C)c1cc(F)ccc1C(C)N1C[C@H](C)N(c2nc(=O)n(C)c3c2nc(CC#N)n3C)C[C@H]1C (stereo partly drawn) [Compound A28, 2-(6-((2S,5R)-4-(1-(4-fluoro-2-(1-methoxyethyl)phenyl)ethyl)-2,5-dimethylpiperazin-1-yl)-3,9-dimethyl-2-oxo-3,9-dihydro-2H-purin-8-yl)acetonitrile] | 0.003 | 96.9 |
| CCn1c(CC#N)nc2c(N3C[C@@H](C)N(C(C)c4cccc(OC)c4)C[C@@H]3C)nc(=O)n(C)c21 (stereo partly drawn) [Compound A46, 2-(9-ethyl-6-((2S,5R)-4-(1-(3-methoxyphenyl)ethyl)-2,5-dimethylpiperazin-1-yl)-3-methyl-2-oxo-3,9-dihydro-2H-purin-8-yl)acetonitrile] | 0.301 | > 150 |
| CC(c1ccc2c(n1)OC(C)(C)CO2)N1C[C@H](C)N(c2nc(=O)n(C)c3c2nc(CC#N)n3CC(F)F)C[C@H]1C (stereo partly drawn) [Compound A165, 2-(9-(2,2-difluoroethyl)-6-((2S,5R)-4-(1-(3,3-dimethyl-2,3-dihydro-[1,4]dioxino[2,3-b]pyridin-6-yl)ethyl)-2,5-dimethylpiperazin-1-yl)-3-methyl-2-oxo-3,9-dihydro-2H-purin-8-yl)acetonitrile] | 0.069 | > 150 |
| CC(c1ccc2c(c1)OCCO2)N1C[C@H](C)N(c2c(F)c(=O)n(C)c3c2nc(CC#N)n3C)C[C@H]1C (single isomer, unassigned) [Compound A18a] | 0.019 | 23.6 |
| CCn1c(CC#N)nc2c(N3C[C@@H](C)N(C(C)c4cccc(OC(C)C)c4)C[C@@H]3C)nc(=O)n(C)c21 (stereo partly drawn) [Compound A43, 2-(9-ethyl-6-((2S,5R)-4-(1-(3-isopropoxyphenyl)ethyl)-2,5-dimethylpiperazin-1-yl)-3-methyl-2-oxo-3,9-dihydro-2H-purin-8-yl)acetonitrile] | 0.079 | 101 |
| CCn1c(CC#N)nc2c(N3C[C@@H](C)N(C(C)c4nc5c(cc4F)OCC(C)(C)O5)C[C@@H]3C)nc(=O)n(C)c21 (single isomer, unassigned) [Compound A161a] | 0.024 | 71.8 |
| CCn1c(CC#N)nc2c(N3C[C@@H](C)N(C(C)c4ccc5c(c4)C(=O)N(C)C5=O)C[C@@H]3C)nc(=O)n(C)c21 (stereo partly drawn) [Compound A83, 2-(6-((2S,5R)-2,5-dimethyl-4-(1-(2-methyl-1,3-dioxoisoindolin-5-yl)ethyl)piperazin-1-yl)-9-ethyl-3-methyl-2-oxo-3,9-dihydro-2H-purin-8-yl)acetonitrile] | 0.04 | > 150 |
| COC[C@H]1CN(C(C)c2ccc3ncc(C)nc3c2)[C@H](C)CN1c1nc(=O)n(C)c2c1nc(CC#N)n2C (single isomer, unassigned) [Compound A13b] | 0.054 | > 150 |
| CC(c1ccc(F)cc1C(F)F)N1C[C@H](C)N(c2nc(=O)n(C)c3c2nc(CC#N)n3C)C[C@H]1C (stereo partly drawn) [Compound A30, 2-(6-((2S,5R)-4-(1-(2-(difluoromethyl)-4-fluorophenyl)ethyl)-2,5-dimethylpiperazin-1-yl)-3,9-dimethyl-2-oxo-3,9-dihydro-2H-purin-8-yl)acetonitrile] | 0.014 | 44.3 |
| CCn1c(CC#N)nc2c(N3C[C@@H](C)N(C(C)c4ccc(C)cc4C(F)(F)F)C[C@@H]3C)nc(=O)n(C)c21 (stereo partly drawn) [Compound A116, 2-(6-((2S,5R)-2,5-dimethyl-4-(1-(4-methyl-2-(trifluoromethyl)phenyl)ethyl)piperazin-1-yl)-9-ethyl-3-methyl-2-oxo-3,9-dihydro-2H-purin-8-yl)acetonitrile] | 0.35 | > 150 |
| CCn1c(CC#N)nc2c(N3C[C@@H](C)N(C(C)c4cccc(OC(C)C)n4)C[C@@H]3C)nc(=O)n(C)c21 (single isomer, unassigned) [Compound A117b] | 0.075 | 145 |
| [2H]C([2H])([2H])n1c(CC#N)nc2c(N3C[C@@H](C)N(C(C)c4ccc(F)cc4C(F)(F)F)C[C@@H]3C)nc(=O)n(C([2H])([2H])[2H])c21 (stereo partly drawn) [Compound A36, 2-(6-((2S,5R)-4-(1-(4-fluoro-2-(trifluoromethyl)phenyl)ethyl)-2,5-dimethylpiperazin-1-yl)-3,9-bis(methyl-d3)-2-oxo-3,9-dihydro-2H-purin-8-yl)acetonitrile] | 0.017 | 104 |
| CC[C@@H]1CN(c2nc(=O)n(C)c3c2nc(CC#N)n3C)[C@@H](C)CN1C(C)c1ccc2c(n1)OC(C)(C)CO2 (single isomer, unassigned) [Compound A159a] | 0.025 | 27.4 |
| CCn1c(CC#N)nc2c(N3C[C@@H](C)N(C(C)c4ccc5c(c4)OC(C)(C)CO5)C[C@@H]3C)nc(=O)n(C)c21 (single isomer, unassigned) [Compound A60b] | 0.206 | > 150 |
| CCn1c(CC#N)nc2c(N3C[C@@H](C)N(C(C)c4cccc(OC(C)C)n4)C[C@@H]3C)nc(=O)n(C)c21 (single isomer, unassigned) [Compound A117a] | 3.3 | > 150 |
| CC(c1ccc2nccnc2c1)N1C[C@H](C)N(c2cc(=O)n(C)c3c2nc(CC#N)n3C)C[C@H]1C (stereo partly drawn) [Compound A1, 2-(7-((2S,5R)-2,5-dimethyl-4-(1-(quinoxalin-6-yl)ethyl)piperazin-1-yl)-3,4-dimethyl-5-oxo-4,5-dihydro-3H-imidazo[4,5-b]pyridin-2-yl)acetonitrile] | 0.019 | 20.2 |
| CCn1c(CC#N)nc2c(N3C[C@@H](C)N(C(C)c4ccc5sc(C)nc5c4)C[C@@H]3C)nc(=O)n(C)c21 (stereo partly drawn) [Compound A55, 2-(6-((2S,5R)-2,5-dimethyl-4-(1-(2-methylbenzo[d]thiazol-5-yl)ethyl)piperazin-1-yl)-9-ethyl-3-methyl-2-oxo-3,9-dihydro-2H-purin-8-yl)acetonitrile] | 0.031 | 68.7 |
| CC(c1ccc2nccnc2c1)N1C[C@H](C)N(c2cc(=O)n(C)c3c2nc(CC#N)n3C)C[C@H]1C (single isomer, unassigned) [Compound A1b] | 2.35 | > 10 |
| CCn1c(CC#N)nc2c(N3C[C@@H](C)N(C(C)c4cccc(C5COC5)c4)C[C@@H]3C)nc(=O)n(C)c21 (stereo partly drawn) [Compound A127, 2-(6-((2S,5R)-2,5-dimethyl-4-(1-(3-(oxetan-3-yl)phenyl)ethyl)piperazin-1-yl)-9-ethyl-3-methyl-2-oxo-3,9-dihydro-2H-purin-8-yl)acetonitrile] | 0.428 | > 150 |
| Cc1ccc(C(C)N2C[C@H](C)N(c3c(F)c(=O)n(C)c4c3nc(CC#N)n4C)C[C@H]2C)c(C(F)(F)F)c1 (single isomer, unassigned) [Compound A15b] | 0.291 | > 10 |
| CC[C@@H]1CN(c2nc(=O)n(C)c3c2nc(CC#N)n3CC)[C@@H](C)CN1C(C)c1ccc2c(n1)OC(C)(C)CO2 (single isomer, unassigned) [Compound A158b] | 0.407 | > 150 |
| CCn1c(CC#N)nc2c(N3C[C@@H](C)N(C(C)c4cc(Cl)c5c(c4)OC(C)(C)O5)C[C@@H]3C)nc(=O)n(C)c21 (stereo partly drawn) [Compound A171, 2-(6-((2S,5R)-4-(1-(7-chloro-2,2-dimethylbenzo[d][1,3]dioxol-5-yl)ethyl)-2,5-dimethylpiperazin-1-yl)-9-ethyl-3-methyl-2-oxo-3,9-dihydro-2H-purin-8-yl)acetonitrile] | 0.107 | 65.8 |
| COc1cc(F)ccc1C(C)N1C[C@H](C)N(c2c(F)c(=O)n(C)c3c2nc(CC#N)n3C)C[C@H]1C (stereo partly drawn) [Compound A16, 2-(6-fluoro-7-((2S,5R)-4-(1-(4-fluoro-2-methoxyphenyl)ethyl)-2,5-dimethylpiperazin-1-yl)-3,4-dimethyl-5-oxo-4,5-dihydro-3H-imidazo[4,5-b]pyridin-2-yl)acetonitrile] | 0.024 | 58.2 |
| CCn1c(CC#N)nc2c(N3C[C@@H](C)N(C(C)c4cc(F)c5c(c4)OC(C)(C)O5)C[C@@H]3C)c(F)c(=O)n(C)c21 (stereo partly drawn) [Compound A189, 2-(3-ethyl-6-fluoro-7-((2S,5R)-4-(1-(7-fluoro-2,2-dimethylbenzo[d][1,3]dioxol-5-yl)ethyl)-2,5-dimethylpiperazin-1-yl)-4-methyl-5-oxo-4,5-dihydro-3H-imidazo[4,5-b]pyridin-2-yl)acetonitrile] | 0.034 | > 150 |
| CCn1c(CC#N)nc2c(N3C[C@@H](C)N(C(C)c4cccc(C(F)(F)F)c4)C[C@@H]3C)nc(=O)n(C)c21 (single isomer, unassigned) [Compound A42b] | 0.285 | 118 |
| Cc1cccc(C(C)N2C[C@H](C)N(c3c(F)c(=O)n(C)c4c3nc(CC#N)n4C)C[C@H]2C)c1C(F)(F)F (single isomer, unassigned) [Compound A17a] | 0.133 | 1.46 |
| CC[C@@H]1CN(c2nc(=O)n(C)c3c2nc(CC#N)n3CC)[C@@H](C)CN1C(C)c1ccc2c(c1)OC(C)(C)CO2 (stereo partly drawn) [Compound A65, 2-(6-((2S,5R)-4-(1-(3,3-dimethyl-2,3-dihydrobenzo[b][1,4]dioxin-6-yl)ethyl)-5-ethyl-2-methylpiperazin-1-yl)-9-ethyl-3-methyl-2-oxo-3,9-dihydro-2H-purin-8-yl)acetonitrile] | 0.0023 | 24.2 |
| CCn1c(CC#N)nc2c(N3C[C@@H](C)N(C(C)c4ccnc(OC(C)C)c4)C[C@@H]3C)nc(=O)n(C)c21 (stereo partly drawn) [Compound A124, 2-(9-ethyl-6-((2S,5R)-4-(1-(2-isopropoxypyridin-4-yl)ethyl)-2,5-dimethylpiperazin-1-yl)-3-methyl-2-oxo-3,9-dihydro-2H-purin-8-yl)acetonitrile] | 0.048 | 111 |
